Experimental data taken from BindingDB's records for doi:10.7270/Q2DV1HH8 (Burnham Center For Chemical Genomics, 2012).
“And” between values parts separate entries of the source, which are not always exact repeats. Equal entries are not always repeated. Structures can show the parent of a compound that is named as a salt. Numbered stars: 1 amine (or outer) side, 2 acyl side, 3 side chain; on linkers, the order of the positions; unused ones are H or OH. Bridge positions count the residues as written; N and C are the ends. Square brackets hold non-standard residues; d marks the D form. Peptide text beside a SMILES is read from it. ξ: configuration not given here. X1 = CC[C@H](CCC[C@@H](O)[C@@H](C)C(=O)O[C@H](C)[C@@H](C)C/C=C(C)\C(=C/C(=O)[*:1])OC)O[*:2]; NMeξIle = CC[C@H](C)C(NC)C(=O)O; NMeV = CN[C@H](C(=O)O)C(C)C; NMeS = CN[C@@H](CO)C(=O)O

Target: T1, Protein skinhead-1 (Caenorhabditis elegans, UniProt P34707)
T1 sequence (P34707 whole entry): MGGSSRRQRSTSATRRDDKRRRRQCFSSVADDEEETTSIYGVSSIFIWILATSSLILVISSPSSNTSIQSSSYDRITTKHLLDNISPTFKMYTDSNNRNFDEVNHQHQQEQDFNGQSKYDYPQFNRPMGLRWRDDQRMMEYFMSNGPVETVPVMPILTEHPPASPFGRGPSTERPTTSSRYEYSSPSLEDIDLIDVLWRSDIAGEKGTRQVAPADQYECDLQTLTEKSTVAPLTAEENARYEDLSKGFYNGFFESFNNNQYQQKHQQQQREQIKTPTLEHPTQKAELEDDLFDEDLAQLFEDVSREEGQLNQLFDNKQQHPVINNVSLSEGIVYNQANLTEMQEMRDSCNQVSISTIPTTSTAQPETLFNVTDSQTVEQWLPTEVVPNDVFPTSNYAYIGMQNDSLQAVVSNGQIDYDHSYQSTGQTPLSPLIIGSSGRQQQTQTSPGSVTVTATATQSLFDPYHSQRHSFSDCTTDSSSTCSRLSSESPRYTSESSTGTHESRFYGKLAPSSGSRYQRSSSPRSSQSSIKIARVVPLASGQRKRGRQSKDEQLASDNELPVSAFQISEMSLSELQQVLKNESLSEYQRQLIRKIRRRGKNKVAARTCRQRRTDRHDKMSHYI

[1] = inactive by the depositor's call

Row | IC50 [1] [µM] | SMILES | IC50
1 |  | COC(=O)c1cc(=O)nc2sccn12 | 21.9 µM
2 |  | CN(C)c1ccc(N=CCC(=O)c2ccco2)cc1 | 70.5 µM
3 |  | O=C(CC=Nc1cccc(F)c1)c1cccs1 | 46.7 µM
4 |  | O=C1/C(=C/c2ccccn2)CCc2ccccc21 | 78.5 µM
5 |  | Nc1ccc(/C=C2\C=Cc3ccccc32)cc1 | 45 µM
6 |  | Cc1ccc2nc(-c3cccnc3)c(NC3CCCCC3)n2c1 | 23.5 µM
7 |  | Cc1ccc(N=CC(C(=O)c2ccco2)C(=O)C(F)(F)F)cc1Cl (stereo unspecified) [2-{[(3-chloro-4-methylphenyl)amino]methylene}-4,4,4-trifluoro-1-(2-furyl)-1,3-butanedione] | 14.3 µM
8 |  | O=C(c1ccco1)C(C=Nc1ccc(Br)cc1)C(=O)C(F)(F)F (stereo unspecified) [2-{[(4-bromophenyl)amino]methylene}-4,4,4-trifluoro-1-(2-furyl)-1,3-butanedione] | 21 µM
9 |  | O=C(CC=Nc1ccc(F)c(F)c1)c1cccs1 [3-[(3,4-difluorophenyl)amino]-1-(2-thienyl)-2-propen-1-one] | 11.4 µM
10 |  | Cc1ccc(N=CCC(=O)c2cccs2)cc1 [3-[(4-methylphenyl)amino]-1-(2-thienyl)-2-propen-1-one] | 60.3 µM
11 |  | O=C1C=CC(=O)c2c(O)c(N3CCN(CCOCCO)CC3)c(Br)c(O)c21 [6-bromo-5,8-dihydroxy-7-[4-[2-(2-hydroxyethoxy)ethyl]piperazin-1-yl]naphthalene-1,4-dione;hydrochloride] | 75.5 µM
12 |  | COC(=O)[C@]12OC[C@]34[C@H]([C@@H](O)[C@@H]1O)[C@@]1(C)CC(=O)C(=O)C(C)[C@@H]1C[C@H]3OC(=O)[C@H](OC(=O)/C=C(\C)C(C)C)[C@@H]24 (stereo partly drawn) [10,15,16-trihydroxy-9,13-dimethyl-17-methyloxycarbonyl-4,11-dioxo-(1R,2S,3R,6R,8R,13S,14R,15R,16S,17R)-5,18-dioxapentacyclo[12.5.0.01,6.02,17.08,13]nonadec-9-en-3-yl 3,4-dimethyl-(E)-2-pentenoate] | 75.3 µM
13 |  | O=C1N[C@@H]2C(=C[C@H](O)[C@@H](O)[C@H]2O)c2cc3c(c(O)c21)OCO3 [(2S,3R,4S,4aR)-2,3,4,7-Tetrahydroxy-3,4,4a,5-tetrahydro-2H-[1,3]dioxolo[4,5-j]phenanthridin-6-one] | 51.4 µM
14 | 79.9 | Cc1cccc(C=CC(=O)c2ccc(N=C3NCCCS3)cc2)c1 [(E)-1-[4-(5,6-dihydro-4H-1,3-thiazin-2-ylamino)phenyl]-3-(3-methylphenyl)prop-2-en-1-one] | 
15 |  | O=C(CC=Nc1ccc(F)cc1F)c1ccco1 [(E)-3-(2,4-difluoroanilino)-1-(2-furanyl)-2-propen-1-one] | 22.7 µM
16 |  | O=C(CC=Nc1ccc(F)c(Cl)c1)c1ccco1 [(E)-3-(3-chloro-4-fluoroanilino)-1-(furan-2-yl)prop-2-en-1-one] | 16.7 µM

Row | IC50 [1] [µM] | SMILES | IC50
17 |  | Cc1ccc(Cl)c(N=CCC(=O)c2ccccc2)c1 [(E)-3-[(2-chloranyl-5-methyl-phenyl)amino]-1-phenyl-prop-2-en-1-one] | 68.8 µM
18 |  | O=C(CC=Nc1ccccc1F)c1cccs1 [(E)-3-[(2-fluorophenyl)amino]-1-thiophen-2-yl-prop-2-en-1-one] | 27.9 µM
19 |  | O=C(CC=Nc1ccc(F)cc1F)c1cccs1 [(E)-3-[[2,4-bis(fluoranyl)phenyl]amino]-1-thiophen-2-yl-prop-2-en-1-one] | 5.04 µM
20 |  | O=C(CC=Nc1ccccn1)c1ccccc1 [(Z)-1-phenyl-3-(pyridin-2-ylamino)prop-2-en-1-one] | 53.7 µM
21 |  | O=C(C=Cc1ccc(Br)cc1)c1ccc(N=C2NCCCS2)cc1 [MLS000391412] | 18.3 µM
22 |  | Cc1cc(C)c2ccc3c(C)c(C)[nH]c3c2n1 [MLS000729064] | 41.1 µM
23 |  | CC[C@@H]1CCC[C@@H](O)[C@@H](C)C(=O)O[C@H](C)[C@@H](C)C/C=C(C)\C(OC)=C/C(=O)N(C)C([C@@H](C)CC)C(=O)N(C)[C@@H](C(C)C)C(=O)N(C)[C@@H](COC)C(=O)N2CCC[C@H]2C(=O)N(C)[C@@H](C(C)C)C(=O)N2CCC[C@H]2C(=O)O1 (stereo partly specified) [MLS003235796] ([NMeξIle][NMeV][NMeS](Me)P[NMeV]P; linker N-C via X1) | 82.4 µM
24 |  | O=C(/N=C1\[N-]c2ccc(Br)c[n+]2Cc2ccccc21)c1ccc([N+](=O)[O-])cc1[N+](=O)[O-] [N-(2-bromanyl-11H-pyrido[1,2-b][2,4]benzodiazepin-6-ylidene)-2,4-dinitro-benzamide] | 2.78 µM
25 |  | CCOC(=O)c1c(C)oc2c(F)c(F)c(F)c(F)c2c1=O [SMR000041624] | 45.5 µM
26 |  | C=c1[nH]n(-c2ccccc2)c(=O)c1=CC=C1N(C)c2ccccc2C1(C)C [SMR000175131] | 87.3 µM and 14.4 µM
27 |  | CC1CCCCN1Cc1c(O)ccc2c(=O)c(-c3nc4ccccc4s3)c(N)oc12 (stereo unspecified) [SMR000218869] | 6.82 µM
28 |  | O=C(CC=Nc1ccc(Br)cc1)c1cccnc1 [SMR000225438] | 68.9 µM
29 |  | O=C(CC=Nc1ccc(Br)cc1F)c1ccco1 [SMR000293180] | 2.19 µM
30 |  | O=C1C2=CCC=CC2Oc2ccc(Br)cc21 (stereo unspecified) [SMR000327218] | > 100 µM
31 | 61.9 | Cn1ccs/c1=N/C(=O)c1ccc(OC(F)(F)F)cc1 [SMR000589314] | 
